Results from US11696898B2, “Halogenated ether compounds and methods of inducing anesthesia” (The Regents of the University of California, priority 2014, dated 2023).
Entries after “also recorded” stand apart in the source; their conditions may differ. Where two headings read alike, the source gives them in different places.

Legend:
NMDA receptors = assay: NMDA receptor modulation at a saturated aqueous phase concentration; format: cell-based
mice = assay: General anesthesia in mice (MAC for loss of righting reflex); format: in vivo; details: inhaled, closed microcircuit
Experimental: In a method to measure the minimum alveolar concentration (MAC) for Loss Of Righting Reflex (MACLORR), for assessing the performance of a compound as a general anesthetic, mice were placed in a 3.5 cm diameter, 14.5 cm long acrylic cylinder connected on either end via unidirectional valves to a closed microcircuit containing a carbon dioxide absorbent vessel, latex balloon breathing bag, sampling port, and 100 mL glass syringe-driven piston. […] The procedures for measuring MACLORR and MAC, as well as general methods for measuring agent concentrations by gas chromatography, have been described in Deady J E, Koblin D D, Eger E I, 2nd, Heavner J E, D'Aoust B: Anesthetic potencies and the unitary theory of narcosis. Anesth Analg 1981; 60: 380-4; Brosnan R J, Thiesen R: Increased NMDA receptor inhibition at an increased Sevoflurane MAC. BMC Anesthesiol 2012; 12: 9; and Brosnan R J: GABA(A) receptor antagonism increases NMDA receptor inhibition by isoflurane at a minimum alveolar concentration. Vet Anaesth Analg 2011; 38: 231-9, the disclosures of which are incorporated by reference in their entireties.

Compound	modulation/inhibition of NMDA receptors (NMDA receptors; listed as 1-bromo-1,1,2-trifluoro-2-(trifluoromethoxy)-ethane)	general anesthesia in mice (mice)	modulation/inhibition of NMDA receptors (NMDA receptors)
FC(OC(F)(F)F)C(F)(F)Br (stereo not drawn) [Ethane, 1-bromo-1,1,2-trifluoro-2-(trifluoromethoxy)-]	devoid of NMDA receptor effects; also recorded: does not modulate NMDA receptors	produced general anesthesia	
COC(F)(C(F)(F)F)C(F)(F)F [Propane, 1,1,1,2,3,3,3-heptafluoro-2-methoxy-]			inhibits NMDA receptors
